In patent US20250052985A1, “SYSTEM AND METHOD FOR QUANTITATIVE PHASE IMAGING FOR MULTI-PARAMETRIC SCREENING OF TUMOR THERAPY RESPONSE” (UNIVERSITY OF UTAH RESEARCH FOUNDATION, priority 2023, published 2025):
Values joined by “and” are separate entries in the source; they are usually repeats but may differ in a detail not shown here. Identical values can stand only once. Like-named read-outs stand apart in the source and are kept apart here.

Assays:
BT-474 cells [1] = experiment: cells; details: for Max Asymptote / Min Asymptote: BT-474, 4-parameter Hill fit of mean SGR vs concentration, one line per replicate; for Hill Slope / log10(EC50): BT-474, Hill fit; for EC50: Homo sapiens
Excerpt: (§1) In some embodiments, breast cancer cell lines are imaged, representing diverse clinical subtypes, summarized in Table 2 below, using a QPI microscope (FIG. 1A) based on differential phase contrast (DPC) microscopy and phase reconstruction via a QPI microscope system. DPC is used for image acquisition and phase reconstruction because DPC's flexible design may be customized for high throughput phase measurements. […] As illustrated in the embodiment of FIG. 1A, a QPI microscope system 100 conducts assays in a 96-well plate (e.g., a well-plate 105) with 6-point dose response curves and up to five therapies in triplicate including solvent controls, summarized in Table 4 below. As described below, in reference to FIG. 1A, a growth response of cells is measured noninvasively using QPI via a QPI microscope system 110 before being assayed using a CTG reader 115.
(§2) FIG. 1B illustrates a timeline plot 200 showing two plates (e.g., two, separate well-plates 105) set up in parallel to measure cell viability. With reference to FIG. 1B, two plates are set-up simultaneously for each experiment. A first plate 205 is incubated for 27 hours (h) post drug exposure prior to CTG analysis (3 h equilibration+24 h of imaging), which measures cell adenosine triphosphate (ATP) content as a surrogate for cell viability. A second plate 210 is imaged for 72 h after 3 h equilibration (e.g., 75 h) and followed by CTG. […] The imaging locations are imaged for 72 h, as shown by images 1700-1715 of FIG. 7.
(§3) In some embodiments, a dose-dependent change in growth, as indicated by a change in the rate of mass accumulation or loss, is a parameter that can be extracted from QPI dose-response data. […] Individual specific growth rate measurements are indicated by points in the distribution of the graph 1200 of FIG. 2A. Blue is indicative of the DMSO control and red is indicative of doxorubicin. The black outline is a kernel density function fit to the distribution of specific growth rates for each condition (e.g., *p<0.05, **p<0.01). In some embodiments, the average SGR of each condition is fit to a sigmoid dose-response curve using a Hill equation. For example, computed logistic fit parameters using a 4-parameter Hill model via the QPI microscope system 110 for all conditions are summarized in Tables 5-8 below. To determine if there is a response, as illustrated by FIG. 2B, the QPI microscope system 110 tests goodness of fit, adjusts for degrees of freedom using an F-test at significance p<0.01 by comparison to a flat line, as an indicator of no response. For cases with a better fit to the Hill equation, the 4-parameter Hill curve may be used by the QPI microscope system 110 to determine the EC50, a measure of sensitivity to therapy because it represents the effective concentration at which 50% of the cells respond to therapy, as illustrated by FIG. 10. […] A 4-parameter Hill curve is fit to each dose response plot to extract the depth of response and EC50 for each cell/drug pair. A flat line represents no response due to failure of the F-test to reject the null hypothesis that the logistic fit is indistinguishable from a flat line. […] Each color indicates a different drug or therapy used.

MCF-7 cells = experiment: cells; details: for Hill Slope / log10(EC50): MCF-7, Hill fit; for EC50: Homo sapiens
Excerpt: as §1, §2, §3

BT-474 cells [2] = experiment: CellTiter-Glo (CTG) ATP viability assay, BT-474; format: cell-based; details: for EC50: Homo sapiens
Experimental: (§4) CTG (e.g., read by the CTG reader 115) is a cell viability assay that quantifies the amount of ATP present at the end of an experiment as an indicator of the number of live cells. The electronic controller 155 measures ATP content in each condition as a readout by a luminescent signal, which is normalized by the luminescence of the control (e.g., a control well) to determine cell viability relative to on-plate controls. In some embodiments, the CTG assay is performed by first removing 100 μL of media from each well on the well-plate 105, which is then replaced with an equal amount of CellTiter-Glo reagent (e.g., Promega, G7572). Assayed plates may be shaken at 500 RPM for 20 minutes and allowed to rest for 10 minutes. In some instances, 100 μL of volume from each well is transferred to a white 96-well plate (e.g., Perkin Elmer, 6005680). The electronic controller 155 collects luminescence data from each well using an Envision plate reader (e.g., Perkin Elmer) and normalized against the solvent control to measure ATP content. The electronic controller 155 fits a 4-parameter hill curve to the dose response to determine the EC50 and depth of response.

MDA-MB-231 cells = experiment: CellTiter-Glo (CTG) ATP viability assay, MDA-MB-231; format: cell-based; details: for Min Asymptote: MDA-MB-231, Hill fit of luminescence normalized to solvent control, one line per replicate; for EC50: Homo sapiens
Experimental: as §4

[3] = 24 h QPI, EC50 in μM per Table 1
[4] = 72 h QPI, EC50 in μM per Table 1

COc1cccc2c1C(=O)c1c(O)c3c(c(O)c1C2=O)C[C@@](O)(C(=O)CO)C[C@@H]3O[C@H]1C[C@H](N)[C@H](O)[C@H](C)O1 [Doxorubicin]
Max Asymptote (BT-474 cells [1]; 24 h QPI): 0.01297 and 0.01051 and 0.00993 | Min Asymptote (BT-474 cells [1]; 24 h QPI): −0.001567 and −0.002506 and −0.002371 | Hill Slope (BT-474 cells [1]; 24 h QPI): 1.5047 and 1.6529 and 1.3096 | log10(EC50) (BT-474 cells [1]; [3]): −0.2827 and −0.2235 | Max Asymptote (BT-474 cells [1]; 72 h QPI): −0.00359 and −0.003807 and −0.003696 | Min Asymptote (BT-474 cells [1]; 72 h QPI): 0.009626 and 0.009175 and 0.009318 | Hill Slope (BT-474 cells [1]; 72 h QPI): 3.7081 and 4.795 and 3.6266 | log10(EC50) (BT-474 cells [1]; [4]): 0.3361 and 0.3186 | DoR QPI (BT-474 cells [1]; BT-474 cell line, depth of response, QPI): 1.4 | ToR 20 μM (BT-474 cells [1]; BT-474 cell line, time of response at 20 μM): 3.4 | EC50 (BT-474 cells [1]; BT-474, 24 h, read-out: log10(EC50), 24 h QPI, BT-474, Hill fit (converted), EC50 in μM per Table 1): 1.78 µM | EC50 (BT-474 cells [1]; BT-474, 72 h, read-out: log10(EC50), 72 h QPI, BT-474, Hill fit (converted), EC50 in μM per Table 1): 0.475 µM | EC50 (BT-474 cells [1]; BT-474, read-out: EC50, QPI, BT-474 cell line, QPI growth rate): 0.5 µM | cluster mass tracked over time (BT-474 cells [1]; small cluster of BT-474 cells, 2 μM, 72 h): losing mass | Max Asymptote (MCF-7 cells; 24 h QPI, MCF-7, 4-parameter Hill fit of mean SGR vs concentration, one line per replicate): 0.03024 and 0.03614 (2×) | Hill Slope (MCF-7 cells; 24 h QPI): 0.4225 and 0.5056 | log10(EC50) (MCF-7 cells; [3]): 0.2581 | Min Asymptote (MCF-7 cells; 72 h QPI, MCF-7, 4-parameter Hill fit of mean SGR vs concentration, one line per replicate): 0.02487 and 0.02696 and 0.02807 | Hill Slope (MCF-7 cells; 72 h QPI): 1.1171 and 1.2782 and 1.7872 | log10(EC50) (MCF-7 cells; [4]): 0.7197 and 0.7012 | EC50 (MCF-7 cells; MCF7, 72 h, read-out: log10(EC50), 72 h QPI, MCF-7, Hill fit (converted), EC50 in μM per Table 1): 0.235 µM | EC50 (MCF-7 cells; MCF7, read-out: EC50, QPI, MCF-7 cell line, QPI growth rate): 0.2 µM | EC50 (MCF-7 cells; MCF7, read-out: EC50, SD, MCF-7 cell line, EC50 of the standard deviation): 11 µM | SGR minimum (mean±standard deviation, SD) (MCF-7 cells; MCF-7, 20 μM, highest dose tested): −0.003+0.004 h^−1 | DoR QPI (MCF-7 cells; MCF-7 cell line, depth of response, QPI): 1.1 | ToR 20 μM (MCF-7 cells; MCF-7 cell line, time of response at 20 μM): −1.3 | Hill Slope (BT-474 cells [2]; 72 h CTG, BT-474, Hill fit): 8.999 and 8.652 | log10(EC50) (BT-474 cells [2]; 72 h CTG, BT-474, Hill fit): 0.3455 | Min Asymptote (BT-474 cells [2]; 72 h CTG, BT-474, Hill fit of luminescence normalized to solvent control, one line per replicate): 0.5407 (2×) and 0.5602 | DoR CTG (BT-474 cells [2]; BT-474 cell line, depth of response, CellTiter-Glo): 0.5 | EC50 (BT-474 cells [2]; BT-474, 72 h, 72 h CTG, BT-474, Hill fit, read-out: log10(EC50) (converted)): 434 nM | EC50 (BT-474 cells [2]; BT-474, BT-474 cell line, CellTiter-Glo, read-out: EC50, CTG): 400 nM | Hill Slope (MDA-MB-231 cells; 24 h CTG, MDA-MB-231, Hill fit): 1.125 | Min Asymptote (MDA-MB-231 cells; 24 h CTG): 0.4072 | Hill Slope (MDA-MB-231 cells; 72 h CTG, MDA-MB-231, Hill fit): 0.8064 and 0.7906 | log10(EC50) (MDA-MB-231 cells; 72 h CTG, MDA-MB-231, Hill fit): 0.5401 | Min Asymptote (MDA-MB-231 cells; 72 h CTG): 0.01711 and 0.03777 (2×) | EC50 (MDA-MB-231 cells; MDA-MB-231, 24 h, 24 h CTG, MDA-MB-231, Hill fit, read-out: log10(EC50) (converted)): 1250 nM | EC50 (MDA-MB-231 cells; MDA-MB-231, 72 h, 72 h CTG, MDA-MB-231, Hill fit, read-out: log10(EC50) (converted)): 204 nM | EC50 (MDA-MB-231 cells; MDA-MB-231, MDA-MB-231 cell line, CellTiter-Glo, read-out: EC50, CTG): 300 nM | DoR CTG (MDA-MB-231 cells; MDA-MB-231 cell line, depth of response, CellTiter-Glo): 1.0
